Earlier results on two compounds are cited in US6994842B2, “Aerogel powder therapeutic agents” (Aspen Aerogels, Inc., priority 2000, dated 2006).

Each structure is given as a SMILES string.

`O=C1CC[C@@]2(O)[C@H]3Cc4ccc(O)c5c4[C@@]2(CCN3CC2CC2)[C@H]1O5` [free base Naltrexone, Naltrexone]: the “solubility in water” value is “not that soluble”. Also, where the note is “supercritical carbon dioxide”, the “solubility in supercritical carbon dioxide” value is “highly soluble”.

Take `CCC(=O)C(CC(C)N(C)C)(c1ccccc1)c1ccccc1` (stereo not drawn) [Methadone]: the solubility in water was 12 g/100 mL.
